# Reference: article PMC9823097, “Dysregulation of PRMT5 in chronic lymphocytic leukemia promotes progression with high risk of Richter’s transformation” (Nature Communications, 2023)
# What was measured:
# [1] = system: Mec-1 cells; assay: Cell growth curves over 12 days, Mec-1; format: cell-based; details: for anti-proliferative potency compared to PRT382: Mec-1
# Protocol: (§1) Live cells/mL were counted on days 3, 6, 10, and 12. […] The split factor was calculated at indicated time points by dividing the counted cells/mL by 3E5. Cell growth was extrapolated over time by multiplying the subsequent cell count by the previous split factor. Cell growth is plotted as fold change relative to DMSO-treated cells.
# [2] = system: HG3 cells; assay: Cell growth curves over 12 days, HG3; format: cell-based; details: for anti-proliferative potency compared to PRT382: HG3
# Protocol: as §1
smiles,measurement,setting,value
Nc1ncnc2c1ccn2C1OC(C(O)c2ccc(Cl)c(F)c2)C(O)C1O (stereo not drawn) [PF-06855800],Rep 1 Live Cells [Fold Change],"[1]; Mec-1, 1 nM, day 0",1 Fold Change
same,Rep 2 Live Cells [Fold Change],"[1]; Mec-1, 1 nM, day 0",1 Fold Change
same,Rep 1 Live Cells [Fold Change],"[1]; Mec-1, 1 nM, day 3",5.6 Fold Change
same,Rep 2 Live Cells [Fold Change],"[1]; Mec-1, 1 nM, day 3",6.6 Fold Change
same,Rep 1 Live Cells [Fold Change],"[1]; Mec-1, 1 nM, day 6",24.6 Fold Change
same,Rep 2 Live Cells [Fold Change],"[1]; Mec-1, 1 nM, day 6",45.98 Fold Change
same,Rep 1 Live Cells [Fold Change],"[1]; Mec-1, 1 nM, day 10",216 Fold Change
same,Rep 2 Live Cells [Fold Change],"[1]; Mec-1, 1 nM, day 10",282.777 Fold Change
same,Rep 1 Live Cells [Fold Change],"[1]; Mec-1, 1 nM, day 12",1400 Fold Change
same,Rep 2 Live Cells [Fold Change],"[1]; Mec-1, 1 nM, day 12",1404.46 Fold Change
same,Rep 1 Live Cells [Fold Change],"[1]; Mec-1, 10 nM, day 0",1 Fold Change
same,Rep 2 Live Cells [Fold Change],"[1]; Mec-1, 10 nM, day 0",1 Fold Change
same,Rep 1 Live Cells [Fold Change],"[1]; Mec-1, 10 nM, day 3",4.77 Fold Change
same,Rep 2 Live Cells [Fold Change],"[1]; Mec-1, 10 nM, day 3",4.767 Fold Change
same,Rep 1 Live Cells [Fold Change],"[1]; Mec-1, 10 nM, day 6",9.22 Fold Change
same,Rep 2 Live Cells [Fold Change],"[1]; Mec-1, 10 nM, day 6",11.6783 Fold Change
same,Rep 1 Live Cells [Fold Change],"[1]; Mec-1, 10 nM, day 10",14.1 Fold Change
same,Rep 2 Live Cells [Fold Change],"[1]; Mec-1, 10 nM, day 10",14.8315 Fold Change
same,Rep 1 Live Cells [Fold Change],"[1]; Mec-1, 10 nM, day 12",6.51 Fold Change
same,Rep 2 Live Cells [Fold Change],"[1]; Mec-1, 10 nM, day 12",21.021 Fold Change
same,Rep 1 Live Cells [Fold Change],"[1]; Mec-1, 100 nM, day 0",1 Fold Change
same,Rep 2 Live Cells [Fold Change],"[1]; Mec-1, 100 nM, day 0",1 Fold Change
same,Rep 1 Live Cells [Fold Change],"[1]; Mec-1, 100 nM, day 3",4.7 Fold Change
same,Rep 2 Live Cells [Fold Change],"[1]; Mec-1, 100 nM, day 3",5.133 Fold Change
same,Rep 1 Live Cells [Fold Change],"[1]; Mec-1, 100 nM, day 6",7 Fold Change
same,Rep 2 Live Cells [Fold Change],"[1]; Mec-1, 100 nM, day 6",6.365 Fold Change
same,Rep 1 Live Cells [Fold Change],"[1]; Mec-1, 100 nM, day 10",3.48 Fold Change
same,Rep 2 Live Cells [Fold Change],"[1]; Mec-1, 100 nM, day 10",6.047 Fold Change
same,Rep 1 Live Cells [Fold Change],"[1]; Mec-1, 100 nM, day 12",1.18 Fold Change
same,Rep 2 Live Cells [Fold Change],"[1]; Mec-1, 100 nM, day 12",4.755 Fold Change
same,Rep 1 Live Cells [Fold Change],"[1]; Mec-1, 1 µM, day 0",1 Fold Change
same,Rep 2 Live Cells [Fold Change],"[1]; Mec-1, 1 µM, day 0",1 Fold Change
same,Rep 1 Live Cells [Fold Change],"[1]; Mec-1, 1 µM, day 3",3.93 Fold Change
same,Rep 2 Live Cells [Fold Change],"[1]; Mec-1, 1 µM, day 3",5.933 Fold Change
same,Rep 1 Live Cells [Fold Change],"[1]; Mec-1, 1 µM, day 6",5.81 Fold Change
same,Rep 2 Live Cells [Fold Change],"[1]; Mec-1, 1 µM, day 6",5.993 Fold Change
same,Rep 1 Live Cells [Fold Change],"[1]; Mec-1, 1 µM, day 10",3.37 Fold Change
same,Rep 2 Live Cells [Fold Change],"[1]; Mec-1, 1 µM, day 10",5.304 Fold Change
same,Rep 1 Live Cells [Fold Change],"[1]; Mec-1, 1 µM, day 12",1.63 Fold Change
same,Rep 2 Live Cells [Fold Change],"[1]; Mec-1, 1 µM, day 12",3.878 Fold Change
same,anti-proliferative potency compared to PRT382,[1]; high doses (1µM),similar
same,anti-proliferative potency compared to PRT382,"[1]; lower doses (10nM, 100nM)",more potent
same,Rep 1 Live Cells [Fold Change],"[2]; HG3, 1 nM, day 0",1 Fold Change
same,Rep 2 Live Cells [Fold Change],"[2]; HG3, 1 nM, day 0",1 Fold Change
same,Rep 1 Live Cells [Fold Change],"[2]; HG3, 1 nM, day 3",3.4 Fold Change
same,Rep 2 Live Cells [Fold Change],"[2]; HG3, 1 nM, day 3",6.6 Fold Change
same,Rep 1 Live Cells [Fold Change],"[2]; HG3, 1 nM, day 6",16.32 Fold Change
same,Rep 2 Live Cells [Fold Change],"[2]; HG3, 1 nM, day 6",45.98 Fold Change
same,Rep 1 Live Cells [Fold Change],"[2]; HG3, 1 nM, day 10",137.904 Fold Change
same,Rep 2 Live Cells [Fold Change],"[2]; HG3, 1 nM, day 10",282.777 Fold Change
same,Rep 1 Live Cells [Fold Change],"[2]; HG3, 1 nM, day 12",482.664 Fold Change
same,Rep 2 Live Cells [Fold Change],"[2]; HG3, 1 nM, day 12",1404.46 Fold Change
same,Rep 1 Live Cells [Fold Change],"[2]; HG3, 10 nM, day 0",1 Fold Change
same,Rep 2 Live Cells [Fold Change],"[2]; HG3, 10 nM, day 0",1 Fold Change
same,Rep 1 Live Cells [Fold Change],"[2]; HG3, 10 nM, day 3",3.27 Fold Change
same,Rep 2 Live Cells [Fold Change],"[2]; HG3, 10 nM, day 3",4.767 Fold Change
same,Rep 1 Live Cells [Fold Change],"[2]; HG3, 10 nM, day 6",11.445 Fold Change
same,Rep 2 Live Cells [Fold Change],"[2]; HG3, 10 nM, day 6",11.6783 Fold Change
same,Rep 1 Live Cells [Fold Change],"[2]; HG3, 10 nM, day 10",19.7426 Fold Change
same,Rep 2 Live Cells [Fold Change],"[2]; HG3, 10 nM, day 10",14.8315 Fold Change
same,Rep 1 Live Cells [Fold Change],"[2]; HG3, 10 nM, day 12",31.5074 Fold Change
same,Rep 2 Live Cells [Fold Change],"[2]; HG3, 10 nM, day 12",21.021 Fold Change
same,Rep 1 Live Cells [Fold Change],"[2]; HG3, 100 nM, day 0",1 Fold Change
same,Rep 2 Live Cells [Fold Change],"[2]; HG3, 100 nM, day 0",1 Fold Change
same,Rep 1 Live Cells [Fold Change],"[2]; HG3, 100 nM, day 3",3.157 Fold Change
same,Rep 2 Live Cells [Fold Change],"[2]; HG3, 100 nM, day 3",5.133 Fold Change
same,Rep 1 Live Cells [Fold Change],"[2]; HG3, 100 nM, day 6",5.956 Fold Change
same,Rep 2 Live Cells [Fold Change],"[2]; HG3, 100 nM, day 6",6.365 Fold Change
same,Rep 1 Live Cells [Fold Change],"[2]; HG3, 100 nM, day 10",4.824 Fold Change
same,Rep 2 Live Cells [Fold Change],"[2]; HG3, 100 nM, day 10",6.047 Fold Change
same,Rep 1 Live Cells [Fold Change],"[2]; HG3, 100 nM, day 12",3.339 Fold Change
same,Rep 2 Live Cells [Fold Change],"[2]; HG3, 100 nM, day 12",4.755 Fold Change
same,Rep 1 Live Cells [Fold Change],"[2]; HG3, 1 µM, day 0",1 Fold Change
same,Rep 2 Live Cells [Fold Change],"[2]; HG3, 1 µM, day 0",1 Fold Change
same,Rep 1 Live Cells [Fold Change],"[2]; HG3, 1 µM, day 3",3.733 Fold Change
same,Rep 2 Live Cells [Fold Change],"[2]; HG3, 1 µM, day 3",5.933 Fold Change
same,Rep 1 Live Cells [Fold Change],"[2]; HG3, 1 µM, day 6",6.21 Fold Change
same,Rep 2 Live Cells [Fold Change],"[2]; HG3, 1 µM, day 6",5.993 Fold Change
same,Rep 1 Live Cells [Fold Change],"[2]; HG3, 1 µM, day 10",3.912 Fold Change
same,Rep 2 Live Cells [Fold Change],"[2]; HG3, 1 µM, day 10",5.304 Fold Change
same,Rep 1 Live Cells [Fold Change],"[2]; HG3, 1 µM, day 12",2.641 Fold Change
same,Rep 2 Live Cells [Fold Change],"[2]; HG3, 1 µM, day 12",3.878 Fold Change
same,anti-proliferative potency compared to PRT382,[2]; high doses (1µM),similar
same,anti-proliferative potency compared to PRT382,"[2]; lower doses (10nM, 100nM)",more potent
